Measurements published in US20040053270A1, “RNA binding compounds and uses thereof” (priority 2000, published 2004).

Test system: E. coli ribosomes
Settings: 20 nM competitor, 20 nM oxazolidinone-TAMRA reporter
Experimental: The interaction between oxazolidinone-TAMRA and E. coli ribosomes was monitored by comparing the change in fluorescence anisotropy in the presence and absence of 100 μM non-fluorescent oxazolidinone competitor. Each measurement was made in a 400 μl cuvette, in a Perkin Elmer LS50B fluorimeter. Increasing amounts of ribosomes (corresponding to the amounts shown in FIG. 6) were added to a solution of 20 nM oxazolidinone-TAMRA in the presence of 50 mM Tris.HCl pH 7.5, 70 mM NH4Cl, 30 mM KCl, 7 mM MgCl2, 1 mM DTT, 0.5 mM EDTA. For each titration point an anisotropy measurement was acquired using an excitation wavelength of 554 nm with the excitation slits set to 10 nm and an emission wavelength of 575 nm with the emission slits set to 10 nm.
The same experiment was performed, but using 20 nM non-fluorescent linezolid (an oxazolidinone) as the competitor.

CC(=O)NC[C@H]1CN(c2ccc(N3CCOCC3)c(F)c2)C(=O)O1 [linezolid] was tested, and the “anisotropy upon addition of the ribosomes in the presence of competitor” value was “considerably reduced”.
